Test results: patent US20240342186A1, “PYRIDINE DERIVATIVES WITH N-LINKED CYCLIC SUBSTITUENTS AS cGAS INHIBITORS” (Boehringer Ingelheim International GmbH, priority 2021, published 2024)
Read-outs that look alike come from different tables or passages of the source.

Assays:
[1] = target: T1, cGAS (Homo sapiens (Human), UniProt Q8N884); assay: Human cGAS enzyme assay (hcGAS IC50, in vitro), cGAMP formation by RapidFire MS; assay type: biochemical;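 note: enzyme activated by 45 bp dsDNA with GTP and ATP (30 µM each), 60 min compound pre-incubation then 90 min reaction, cGAMP relative to cyclic-di-GMP internal standard, 8-point dilutions up to 10 µM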
[2] = test system: cellular cGAS activity in dsDNA-stimulated human whole blood; assay: Human whole blood assay (hWB IC50): IFNα2α production after dsDNA transfection; assay type: cell-based
Summary of the method: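 Citrated blood from healthy donors preincubated 60 min at room temperature with compound (top 10 µM, ~1:5 steps, 0.1% DMSO), then transfected with dsDNA/Fugene and incubated 22 h at 37 °C. Plasma IFNα2α measured by MSD immunoassay; IC50 from 4-parameter fit of % control (stimulated vs unstimulated).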

[3] = test system: cellular cGAS activity in baculovirus-stimulated THP1-Dual cells (IRF dependent Lucia luciferase reporter); assay: Human cGAS cell assay: inhibition of IFN induction in virus-stimulated THP1 cells (THP1(vir) IC50); assay type: cell-based
Summary of the method: (§1)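 THP1-Dual cells with IRF-dependent Lucia luciferase reporter, stimulated by empty baculovirus (dsDNA delivery activating cGAS) or, for the counter assay, directly by cGAMP. 5000 cells/well, 8 concentrations from 10 μM top, 1% DMSO, 18 h at 37 °C; luminescence read, IC50 by 4-parameter logistic fit versus unstimulated low control.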

[4] = test system: cGAMP-stimulated THP1-Dual cells (pathway directly downstream of cGAS); assay: cGAMP stimulated counter cell assay: inhibition of IFN induction in cGAMP-stimulated THP1 cells (THP1(cGAMP) IC50); assay type: cell-based, human; conditions: for IC50: read-out: THP1(cGAMP) IC50 (converted); for Ratio THP1(cGAMP) IC50 / THP1(vir) IC50: selectivity for cGAS inhibition
Summary of the method: as §1

[5] = target: T1, cGAS; conditions: groups of page 44/45 of WO 2020/142729; read-out: biochemical (in vitro) IC50 group; cited from earlier work
[6] = biochemical (in vitro) cGAS inhibition
[7] = inhibition of IFN induction in dsDNA-stimulated human whole blood
[8] = Homo sapiens, THP1-Dual, inhibition of IFN induction in virus-stimulated THP1 cells, read-out: THP1(vir) IC50
[9] = Homo sapiens, THP1-Dual, inhibition of IFN induction in cGAMP-stimulated THP1 cells
[10] = biochemical (in vitro), human cGAS, 45 bp dsDNA, GTP/ATP
[11] = Homo sapiens, THP1-Dual, cGAMP-stimulated THP1 cells, counter assay

T1 sequence (Q8N884 whole entry): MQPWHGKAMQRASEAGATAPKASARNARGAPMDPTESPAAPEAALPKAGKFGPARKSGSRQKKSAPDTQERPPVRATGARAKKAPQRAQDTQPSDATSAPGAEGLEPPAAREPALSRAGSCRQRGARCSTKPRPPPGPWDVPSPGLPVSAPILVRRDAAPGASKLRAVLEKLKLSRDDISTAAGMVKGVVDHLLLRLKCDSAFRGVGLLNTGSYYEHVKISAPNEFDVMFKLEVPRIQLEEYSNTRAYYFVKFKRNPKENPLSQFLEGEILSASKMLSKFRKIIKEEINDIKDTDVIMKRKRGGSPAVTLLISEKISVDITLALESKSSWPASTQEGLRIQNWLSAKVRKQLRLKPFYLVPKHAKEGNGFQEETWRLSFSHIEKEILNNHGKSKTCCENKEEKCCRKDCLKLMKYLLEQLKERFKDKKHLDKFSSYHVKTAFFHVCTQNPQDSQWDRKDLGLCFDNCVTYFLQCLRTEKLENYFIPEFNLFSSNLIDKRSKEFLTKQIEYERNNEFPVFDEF

| IC50 [1, 6] [nM] | IC50 [2, 7] [nM] | IC50 [3, 8] [nM] | Compound | IC50 [4, 9] [nM] | Ratio THP1(cGAMP) IC50 / THP1(vir) IC50 [4] | other results |
| --- | --- | --- | --- | --- | --- | --- |
| 3 | 23 | 7 | C#Cc1cnc(O[C@H]2C[C@@H](C(=O)O)N(c3nc(C(F)(F)Cl)nc4c3oc3ccccc34)C2)c(N2CCOC3(COC3)[C@@H]2C)c1 [Example 1.16] | 15000 | 2209 |  |
| 6 | 37 | 31 | C#Cc1cnc(O[C@H]2C[C@@H](C(=O)O)N(c3nc(C(F)(F)F)nc4c3oc3cc(CC)ccc34)C2)c(N2CCOC3(COC3)[C@@H]2C)c1 [Example 2.09] | 5180 | 166 |  |
| 3 | 50 | 30 | C[C@@H]1N(c2cc(-c3cn(C)cn3)cnc2O[C@H]2C[C@@H](C(=O)O)N(c3nc(C(F)(F)F)nc4c3oc3ccccc34)C2)CCOC12COC2 [Example 3.20] | 11500 | 383 |  |
|  | 33 | 91 | C[C@@H]1N(c2cc(Br)cnc2O[C@H]2C[C@@H](C(=O)O)N(c3nc(C(F)(F)F)nc4c3oc3ccccc34)C2)CCOC12COC2 [Example 1.10, (2S,4S)-4-({5-bromo-3-[(9S)-9-methyl-2,5-dioxa-8-azaspiro[3.5]nonan-8-yl]pyridin-2-yl}oxy)-1-[4-(trifluoromethyl)-8-oxa-3,5-diazatricyclo[7.4.0.0^2,7]trideca-1(9),2(7),3,5,10,12-hexaen-6-yl]pyrrolidine-2-carboxylic acid] | 16100 | 178 | IC50 [1, 10]: 5 nM |
| 11 | 26 | 10 | COc1ncccc1-c1cnc(O[C@H]2C[C@@H](C(=O)O)N(c3nc(C(F)(F)F)nc4c3oc3ccccc34)C2)c(N2CCOC3(COC3)[C@@H]2C)c1 [Example 3.14] | 7830 | 822 |  |
| 3 | 7 | 6 | C#Cc1cnc(O[C@H]2C[C@@H](C(=O)O)N(c3nc(C(C)(F)F)nc4c3oc3ccccc34)C2)c(N2CCOC3(COC3)[C@@H]2C)c1 [Example 1.14] | > 16600 | >2708 |  |
| 10 | 25 | < 5 | CC#Cc1cnc(O[C@H]2C[C@@H](C(=O)O)N(c3nc(C(F)(F)F)nc4c3oc3ccccc34)C2)c(N2CCOC3(COC3)[C@@H]2C)c1 [Example 6.01] | 20500 | 3801 |  |
| 21 | 27 | 2 | CNc1cccc(-c2cnc(O[C@H]3C[C@@H](C(=O)O)N(c4nc(C(F)(F)F)nc5c4oc4ccccc45)C3)c(N3CCOC4(COC4)[C@@H]3C)c2)n1 [Example 7.03] | > 10000 | 4151 |  |
| 3 | 44 | 7 | CNc1cncc(-c2cnc(O[C@H]3C[C@@H](C(=O)O)N(c4nc(C(F)(F)F)nc5c4oc4ccccc45)C3)c(N3CCOC4(COC4)[C@@H]3C)c2)c1 [Example 3.18] | 4760 | 645 |  |
| 20 | 43 | 11 | C[C@@H]1N(c2cc(-c3cccc(N(C)C)c3)cnc2O[C@H]2C[C@@H](C(=O)O)N(c3nc(C(F)(F)F)nc4c3oc3ccccc34)C2)CCOC12COC2 [Example 3.17] | 16800 | 1542 |  |
| 9 | 65 | 25 | C[C@@H]1N(c2cc(-c3cccc(C(N)=O)c3)cnc2O[C@H]2C[C@@H](C(=O)O)N(c3nc(C(F)(F)F)nc4c3oc3ccccc34)C2)CCOC12COC2 [Example 3.13] | 8350 | 335 |  |
| 26 | 84 | 15 | C[C@@H]1N(c2cc(-c3cnn(C(F)(F)F)c3)cnc2O[C@H]2C[C@@H](C(=O)O)N(c3nc(C(F)(F)F)nc4c3oc3ccccc34)C2)CCOC12COC2 [Example 3.30] | 12600 | 829 |  |

Continued, compound first:

| Compound | IC50 [1, 6] [nM] | IC50 [2, 7] [nM] | IC50 [3, 8] [nM] | IC50 [4, 9] [nM] | Ratio THP1(cGAMP) IC50 / THP1(vir) IC50 [4] | other results |
| --- | --- | --- | --- | --- | --- | --- |
| CSc1cc(-c2cnc(O[C@H]3C[C@@H](C(=O)O)N(c4nc(C(F)F)nc5c4oc4ccccc45)C3)c(N3CCOC4(COC4)[C@@H]3C)c2)ccn1 [Example 3.16, (2S,4S)-1-[4-(difluoromethyl)-8-oxa-3,5-diazatricyclo-[7.4.0.0^2.7]trideca-1(9),2(7),3,5,10,12-hexaen-6-yl]-4-({5-[(9S)-9-methyl-2,5-dioxa-8-azaspiro[3.5]nonan-8-yl]-2′-(methylsulfanyl)-[3,4′-bipyridin]-6-yl}oxy)-pyrrolidine-2-carboxylic acid] | 15 | 38 | 19 | 11800 | 629 |  |
| COc1cc(-c2cnc(O[C@H]3C[C@@H](C(=O)O)N(c4nc(C(F)F)nc5c4oc4ccccc45)C3)c(N3CCOC4(COC4)[C@@H]3C)c2)c(F)cn1 [Example 3.32] | 9 | 17 | 2 | 12900 | 5194 |  |
| (2S,4S)-4-({3-[(95)-9-Methyl-2,5-dioxa-8-azaspiro[3.5]nonan-8-yl]-5-(pyrimidin-5-yl)pyridin-2-yl}oxy)-1-[4-(trifluoromethyl)-8-oxa-3,5-diazatricyclo[7.4.0.0^2,7]trideca-1(9),2(7),3,5,10,12-hexaen-6-yl]pyrrolidine-2-carboxylic acid [Example 7.01] | 14 | 50 |  |  | 1700 | IC50 ([3]; inhibition of IFN induction in virus-stimulated THP1 cells, read-out: THP1(vir) IC50): 5 nM; IC50 ([4]; inhibition of IFN induction in cGAMP-stimulated THP1 cells): 9260 nM |
| C#Cc1cnc(O[C@H]2C[C@@H](C(=O)O)N(c3nc(C)nc4c3oc3cc(F)ccc34)C2)c(N2CCOC3(COC3)[C@@H]2C)c1 [Example 2.08] | 3 | 6 | < 5 | 18800 | 3490 |  |
| COC(=O)[C@@H]1C[C@H](Oc2ncc(-c3cccnc3OC)cc2N2CCOC3(COC3)[C@@H]2C)CN1c1nc(C(F)(F)F)nc2c1oc1ccccc12 [Example P04] |  |  |  |  |  | IC50 [1, 10]: > 9950 nM; IC50 ([2]; dsDNA-stimulated human whole blood, IFN induction): 2750 nM; IC50 ([3]; Homo sapiens, THP1-Dual, virus-stimulated THP1 cells, IFN induction, read-out: THP1(vir) IC50): 67 nM; IC50 [4, 11]: > 16600 nM |
| C[C@H]1COCCN1c1cc(Cl)cnc1O[C@H]1C[C@@H](C(=O)O)N(c2nc(C(F)F)nc3c2oc2ccccc23)C1 [Example 1.27] | 4 | 221 | 516 | > 16600 | >32 |  |
| Cc1nc(N2C[C@@H](Cc3nn[nH]n3)C[C@H]2C(=O)O)c2oc3ccccc3c2n1 [Example 25, reference compound] |  |  |  |  |  | IC50 ([3]; Homo sapiens, THP1-Dual, virus-stimulated THP1 cells, read-out: THP1(vir) IC50): 17000 nM; IC50 [4, 11]: > 17000 nM; IC50 [5]: < 100 nM |
| C[C@H]1COCCN1c1cc(Br)cnc1O[C@H]1C[C@@H](C(=O)O)N(c2nc(C(F)F)nc3c2oc2ccccc23)C1 [Example 1.28] | 3 | 629 | 500 | > 16600 | >33 |  |
| C[C@@H]1N(c2cccnc2O[C@H]2C[C@@H](C(=O)O)N(c3nc(C(F)F)nc4c3oc3ccccc34)C2)CCOC12COC2 [Example 4.04, (2S,4S)-4-({3-[(9S)-9-methyl-2,5-dioxa-8-azaspiro[3.5]nonan-8-y]-pyridin-2-yl}-oxy)1-[4-(difluoro-methyl)-8-oxa-3,5-diazatricyclo[7.4.0.0^2.7]trideca-1(13),2,4,6,9,11-hexaen-6-yl]pyrrolidine-2-carboxylic acid] | 2 | 77 |  | > 16600 | >43 | IC50 ([3]; Homo sapiens, THP1-Dual, read-out: THP1(vir) IC50, inhibition of IFN induction in virus-stimulated THP1 cells): 386 nM; IC50 ([3]; Homo sapiens, THP1-Dual, read-out: THP1(vir) IC50, virus-stimulated THP1 cells, IFN induction): 386 nM; IC50 ([4]; cGAMP-stimulated THP1 cells, counter assay): > 16600 nM |
